The text below walks through data of patent US9199946B2, “Pyrimidinone carboxamide inhibitors of endothelial lipase” (BRISTOL-MYERS SQUIBB COMPANY, priority 2012, dated 2015).

Molecules are shown by their SMILES. Bounds are passed on as bounds.

For orientation: IC50 means the point on the concentration scale where inhibition reaches its midpoint.

The target in the first experiment is T1, Endothelial lipase (EL) (Homo sapiens, UniProt Q9Y5X9).
T1 construct: HT-1080 cells, which were transformed by RAGE technology (Athersys) to overexpress endogenous EL; endogenous in cells; conditioned medium used as the enzyme source
T1 sequence (Q9Y5X9 21-500): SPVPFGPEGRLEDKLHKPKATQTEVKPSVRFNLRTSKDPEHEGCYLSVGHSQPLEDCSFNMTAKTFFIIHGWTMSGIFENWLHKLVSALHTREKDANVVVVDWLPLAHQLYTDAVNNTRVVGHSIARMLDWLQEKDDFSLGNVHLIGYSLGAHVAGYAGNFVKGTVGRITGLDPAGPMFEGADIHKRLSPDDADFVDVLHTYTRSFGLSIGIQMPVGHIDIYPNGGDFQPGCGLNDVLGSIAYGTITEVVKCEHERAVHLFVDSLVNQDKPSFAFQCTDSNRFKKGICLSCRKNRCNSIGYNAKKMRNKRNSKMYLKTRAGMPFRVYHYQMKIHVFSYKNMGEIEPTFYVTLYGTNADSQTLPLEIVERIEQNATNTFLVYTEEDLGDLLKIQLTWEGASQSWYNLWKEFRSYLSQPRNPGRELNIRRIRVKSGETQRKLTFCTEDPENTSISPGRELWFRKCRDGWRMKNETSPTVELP
The experiment can be described thus: Endothelial lipase (EL) enzymatic assay with fluorescent substrate A10070 in DMPG vesicles. To be noted: conditioned media from HT-1080 cells overexpressing endogenous EL; 20 min preincubation at 37° C.; read-out: EL IC50. The class given is biochemical. On the procedure:
Endothelial lipase activity was measured using a fluorescent substrate, A10070, (Invitrogen, CA) doped into an artificial vesicle containing DMPG (Avanti Polar Lipids) as the excipient. Vesicles were prepared by combining 285 μL of 1 mM DMPG in a 1:1 mixture of MeOH and CHCl3 with 15 μL of 1 mM A10070 in a 1:1 mixture of MeOH and CHCl3. The mixture was dried under nitrogen and resuspended in 150 μL of 50 mM HEPES pH 8.0 buffer containing 100 mM NaCl and 0.2 mM EDTA. The sample was allowed to sit at rt for 15 min and then was sonicated 3×4 mins on ice with a Branson Sonicator using duty cycle 1. This preparation provides vesicles with a mole fraction of 0.05 for the FRET substrate.
The enzymatic assay was measured using white, opaque 96-well half area plates. Each well contained 60 μL of assay buffer (50 mM HEPES pH 8.0, 50 mM NaCl and 1 mM CaCl2) and 2 ul of a DMSO solution containing compound of interest. Conditioned media obtained from HT-1080 cells, which were transformed by RAGE technology (Athersys) to overexpress endogenous EL, was added and the reaction was allowed to incubate for 20 min at 37° C. with gentle agitation. The reaction was started by the addition of 20 μL of a 1:4 dilution of vesicles. The final total reaction volume was 100 μL. The reaction rates were measured on a Gemini plate reader with an excitation wavelength of 488 nm and an emission of 530 nm. Readings were taken every 20 seconds for 10 min with agitation between each reading. The slope of the linear portion of the readout was used to calculate the rate of the reaction.
In the case of `O=C(NC1CCCC(c2cnn(Cc3ccccc3)c2)C1)c1[nH]c(=O)[nH]c(=O)c1O` (racemic) [Example 289, N-(3-(1-benzyl-1H-pyrazol-4-yl)cyclohexyl)-5-hydroxy-2,6-dioxo-1,2,3,6-tetrahydropyrimidine-4-carboxamide], the IC50 was 0.01 µM.
`Nc1c(C(=O)N[C@H]2CCCc3ccc(C(F)(F)F)cc32)[nH]c(=O)[nH]c1=O` [Example 54, (S)-5-amino-2,6-dioxo-N-(7-(trifluoromethyl)-1,2,3,4-tetrahydronaphthalen-1-yl)-1,2,3,6-tetrahydropyrimidine-4-carboxamide]: the half-maximal inhibitory concentration (IC50) is 7.16 µM.
For `Nc1c(C(=O)NC2CCC(NC(=O)Cc3nc4ccc(-c5ccccc5)cc4s3)C2)[nH]c(=O)[nH]c1=O` (stereo not drawn) [Example 135, 5-amino-2,6-dioxo-N-(3-(2-(6-phenylbenzo[d]thiazol-2-yl)acetamido)cyclopentyl)-1,2,3,6-tetrahydropyrimidine-4-carboxamide], the IC50 is 3.68 µM.
For the compound `Nc1c(C(=O)N[C@@H]2CCCc3ccc(C(F)(F)F)cc32)[nH]c(=O)[nH]c1=O` [Example 53, (R)-5-amino-2,6-dioxo-N-(7-(trifluoromethyl)-1,2,3,4-tetrahydronaphthalen-1-yl)-1,2,3,6-tetrahydropyrimidine-4-carboxamide], the half-maximal inhibitory concentration (IC50) worked out at 0.018 µM.
As for `Nc1c(C(=O)NC2CCN(c3ncccc3Cl)C2)[nH]c(=O)[nH]c1=O` (stereo not drawn) [Example 186, 5-amino-N-(1-(3-chloropyridin-2-yl)pyrrolidin-3-yl)-2,6-dioxo-1,2,3,6-tetrahydropyrimidine-4-carboxamide], the half-maximal inhibitory concentration (IC50) stood at 0.042 µM.
Take `Nc1c(C(=O)N[C@H]2CCc3ccc(C(F)(F)F)cc32)[nH]c(=O)[nH]c1=O` [Example 15, (S)-5-amino-2,6-dioxo-N-(6-(trifluoromethyl)-2,3-dihydro-1H-inden-1-yl)-1,2,3,6-tetrahydropyrimidine-4-carboxamide]: the IC50 was determined as 13 µM.

The same experiment, now with this note: range observed in the EL assay; read-out: EL IC50 values.
On to `Nc1c(C(=O)N[C@H]2CC[C@@H](c3cccc(C(F)(F)F)c3)CC2)[nH]c(=O)[nH]c1=O` [Example 30, 5-amino-2,6-dioxo-N-(cis-4-(3-(trifluoromethyl)phenyl)cyclohexyl)-1,2,3,6-tetrahydropyrimidine-4-carboxamide], for which the IC50 was no more than 10 µM.
Turning to `CC(=O)Nc1ccccc1-c1ccc([C@@H]2CC[C@H](NC(=O)c3[nH]c(=O)[nH]c(=O)c3N)C2)cc1` [Example 162, N-((1S,3R)-3-(2′-acetamidobiphenyl-4-yl)cyclopentyl)-5-amino-2,6-dioxo-1,2,3,6-tetrahydropyrimidine-4-carboxamide], the half-maximal inhibitory concentration (IC50) is no more than 10 µM.
As to `Nc1c(C(=O)NC2CCC(c3cnn(Cc4ccccc4)c3)C2)[nH]c(=O)[nH]c1=O` (single isomer, unassigned) [Example 131, 5-amino-N-(3-(1-benzyl-1H-pyrazol-4-yl)cyclopentyl)-2,6-dioxo-1,2,3,6-tetrahydropyrimidine-4-carboxamide], the concentration for half-maximal inhibition (IC50) is no more than 10 µM.
`COc1cc(C)c(OC)c2c1CC(NC(=O)c1[nH]c(=O)[nH]c(=O)c1N)CC2` (stereo not drawn) [Example 109, 5-amino-N-(5,8-dimethoxy-6-methyl-1,2,3,4-tetrahydronaphthalen-2-yl)-2,6-dioxo-1,2,3,6-tetrahydropyrimidine-4-carboxamide]: the IC50 was no more than 10 µM.
Take `COc1ccc(C2CCC(NC(=O)c3[nH]c(=O)[nH]c(=O)c3N)C2)cc1` (stereo not drawn) [Example 107, 5-amino-N-(3-(4-methoxyphenyl)cyclopentyl)-2,6-dioxo-1,2,3,6-tetrahydropyrimidine-4-carboxamide]: the IC50 is no more than 10 µM.
For the compound `Nc1c(C(=O)N[C@@H]2CCCc3cc(OCC(F)(F)F)ccc32)[nH]c(=O)[nH]c1=O` [Example 33, (R)-5-amino-2,6-dioxo-N-(6-(2,2,2-trifluoroethoxy)-1,2,3,4-tetrahydronaphthalen-1-yl)-1,2,3,6-tetrahydropyrimidine-4-carboxamide], the IC50 is no more than 10 µM.
In the case of `Nc1c(C(=O)N[C@@H]2CCCc3cc(C(F)(F)F)ccc32)[nH]c(=O)[nH]c1=O` [Example 51, (R)-5-amino-2,6-dioxo-N-(6-(trifluoromethyl)-1,2,3,4-tetrahydronaphthalen-1-yl)-1,2,3,6-tetrahydropyrimidine-4-carboxamide], the IC50 was no more than 10 µM.
In the case of `O=C(N[C@H]1CC[C@@H](c2ccccc2)CC1)c1[nH]c(=O)[nH]c(=O)c1O` [Example 238, Hydroxy-2,6-dioxo-N-(cis-4-phenylcyclohexyl)-1,2,3,6-tetrahydropyrimidine-4-carboxamide], the IC50 was no more than 10 µM.
On the same count and under the same terms, for `CCOC(=O)N1CCC(NC(=O)c2[nH]c(=O)[nH]c(=O)c2N)c2ccccc21` (single isomer, unassigned; enantiomer b) [Example 193, Ethyl 4-(5-amino-2,6-dioxo-1,2,3,6-tetrahydropyrimidine-4-carboxamido)-3,4-dihydroquinoline-1(2H)-carboxylate (Enantiomer B)] the value was no more than 10 µM; for `Nc1c(C(=O)N[C@@H]2CCc3ccccc32)[nH]c(=O)[nH]c1=O` [Example 9, (R)-5-amino-N-(2,3-dihydro-1H-inden-1-yl)-2,6-dioxo-1,2,3,6-tetrahydropyrimidine-4-carboxamide], no more than 10 µM; for `COc1ccc([C@@H]2CC[C@H](NC(=O)c3[nH]c(=O)[nH]c(=O)c3N)C2)cn1` [Example 79, 5-amino-N-((1S,3R)-3-(6-methoxypyridin-3-yl)cyclopentyl)-2,6-dioxo-1,2,3,6-tetrahydropyrimidine-4-carboxamide], no more than 10 µM.
On the same count and under the same terms, the value for `O=C(NC1CCCC(c2cnn(Cc3ccccc3)c2)C1)c1[nH]c(=O)[nH]c(=O)c1O` (racemic) [Example 289, N-(3-(1-benzyl-1H-pyrazol-4-yl)cyclohexyl)-5-hydroxy-2,6-dioxo-1,2,3,6-tetrahydropyrimidine-4-carboxamide] was no more than 10 µM.
Same read-out and setting: the value for `Nc1c(C(=O)N[C@H]2CCCc3ccc(C(F)(F)F)cc32)[nH]c(=O)[nH]c1=O` [Example 54, (S)-5-amino-2,6-dioxo-N-(7-(trifluoromethyl)-1,2,3,4-tetrahydronaphthalen-1-yl)-1,2,3,6-tetrahydropyrimidine-4-carboxamide] was no more than 10 µM; that for `Nc1c(C(=O)NC2Cc3ccccc3C2Cc2ccccc2)[nH]c(=O)[nH]c1=O` (stereo not drawn) [Example 8, 5-amino-N-(1-benzyl-2,3-dihydro-1H-inden-2-yl)-2,6-dioxo-1,2,3,6-tetrahydropyrimidine-4-carboxamide] was no more than 10 µM; that for `Nc1c(C(=O)N[C@H]2CC[C@@H](c3ccc(OCc4ccccc4)cc3)CC2)[nH]c(=O)[nH]c1=O` [Example 114, 5-amino-N-(cis-4-(4-(benzyloxy)phenyl)cyclohexyl)-2,6-dioxo-1,2,3,6-tetrahydropyrimidine-4-carboxamide] was no more than 10 µM.
Consider `Nc1c(C(=O)N[C@@H]2CCC[C@@H]2c2ccc(Cl)cc2)[nH]c(=O)[nH]c1=O` [Example 64, 5-amino-N-((1R,2R)-2-(4-chlorophenyl)cyclopentyl)-2,6-dioxo-1,2,3,6-tetrahydropyrimidine-carboxamide], for which the IC50 is no more than 10 µM.
As for `COc1cccc(N2CC(NC(=O)c3[nH]c(=O)[nH]c(=O)c3N)CC2=O)c1` (stereo not drawn) [Example 81, 5-amino-N-(1-(3-methoxyphenyl)-5-oxopyrrolidin-3-yl)-2,6-dioxo-1,2,3,6-tetrahydropyrimidine-4-carboxamide], the IC50 was no more than 10 µM.
For the compound `Nc1c(C(=O)NC2CCC(NC(=O)Cc3nc4ccc(-c5ccccc5)cc4s3)C2)[nH]c(=O)[nH]c1=O` (stereo not drawn) [Example 135, 5-amino-2,6-dioxo-N-(3-(2-(6-phenylbenzo[d]thiazol-2-yl)acetamido)cyclopentyl)-1,2,3,6-tetrahydropyrimidine-4-carboxamide], the half-inhibitory concentration (IC50) was no more than 10 µM.
With `Nc1c(C(=O)N[C@@H]2CCCc3ccc(C(F)(F)F)cc32)[nH]c(=O)[nH]c1=O` [Example 53, (R)-5-amino-2,6-dioxo-N-(7-(trifluoromethyl)-1,2,3,4-tetrahydronaphthalen-1-yl)-1,2,3,6-tetrahydropyrimidine-4-carboxamide], the 50% inhibitory concentration (IC50) is no more than 10 µM.
In the case of `Nc1c(C(=O)NC2CCN(c3ncccc3Cl)C2)[nH]c(=O)[nH]c1=O` (stereo not drawn) [Example 186, 5-amino-N-(1-(3-chloropyridin-2-yl)pyrrolidin-3-yl)-2,6-dioxo-1,2,3,6-tetrahydropyrimidine-4-carboxamide], the 50% inhibitory concentration (IC50) is no more than 10 µM.
Still for that read-out and setting: the value for `Nc1c(C(=O)N[C@@H]2CCCc3c(OCc4ccccc4F)cccc32)[nH]c(=O)[nH]c1=O` [Example 96, (R)-5-amino-N-(5-(2-fluorobenzyloxy)-1,2,3,4-tetrahydronaphthalen-1-yl)-2,6-dioxo-1,2,3,6-tetrahydropyrimidine-4-carboxamide] was no more than 10 µM; that for `Nc1c(C(=O)NC2CCCC(c3ccccc3)C2)[nH]c(=O)[nH]c1=O` (single isomer, unassigned) [Example 100, 5-amino-2,6-dioxo-N-(3-phenylcyclohexyl)-1,2,3,6-tetrahydropyrimidine-4-carboxamide] was no more than 10 µM.
Consider `O=C(N[C@H]1CC[C@@H](c2ccccc2)CC1)c1[nH]c(=O)[nH]c(=O)c1NCc1ccccc1CO` [Example 212, 5-(2-(hydroxymethyl)benzylamino)-2,6-dioxo-N-(cis-4-phenylcyclohexyl)-1,2,3,6-tetrahydropyrimidine-4-carboxamide], for which the IC50 is no more than 10 µM.
The same measure, in the same setting: the value for `NS(=O)(=O)c1ccc(CCNc2c(C(=O)N[C@H]3CC[C@@H](c4ccccc4)CC3)[nH]c(=O)[nH]c2=O)cc1` [Example 226, 2,6-dioxo-N-(cis-4-phenylcyclohexyl)-5-(4-sulfamoylphenethylamino)-1,2,3,6-tetrahydropyrimidine-4-carboxamide] was no more than 10 µM.
